Data reported in patent US20180201592A1, “2-AMINO-1,3,4-THIADIAZINE AND 2-AMINO-1,3,4-OXADIAZINE BASED ANTIFUNGAL AGENTS” (F2G Limited, priority 2015, published 2018).

Columns and labels:
Conditions in all cases: banded MIC grade
[1] = system: A. fumigatus 210; assay: Minimum inhibitory concentration, YAG medium; assay type: cell-based, Aspergillus fumigatus
Outline: (§1)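 Broth microdilution in YAG medium (1% glucose, 1% ammonium chloride, 0.5% yeast extract) with spore inocula of 1-2×10^4 cfu/mL and doubling dilutions typically spanning 50-0.05 mg/L. Plates were incubated 24 hrs at 35° C and read by OD 485 nm. MIC is the lowest concentration giving >70% growth inhibition versus drug-free control, in mg/L.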

[2] = system: Aspergillus terreus; assay: Minimum inhibitory concentration, YAG medium; assay type: cell-based
Outline: (§2)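 Growth inhibition was read as absorbance at 485 nm after spores of Aspergillus spp. were exposed for 24 hrs at 35° C to doubling dilutions of the compound. Dilutions were made in water starting from a 5 mg/mL DMSO stock, and MIC values were expressed in mg/L.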

[3] = system: Aspergillus niger; assay: Minimum inhibitory concentration, YAG medium; assay type: cell-based
Outline: as §2

[4] = system: Aspergillus flavus; assay: Minimum inhibitory concentration, YAG medium; assay type: cell-based
Outline: as §2

[5] = system: A. terreus 49; assay: Minimum inhibitory concentration, YAG medium; assay type: cell-based, Aspergillus terreus
Outline: as §2

[6] = system: Aspergillus fumigatus; assay: Minimum inhibitory concentration, YAG medium; assay type: cell-based
Outline: as §1

[7] = system: C. parapsilosis; assay: Minimum inhibitory concentration, RPMI medium; assay type: cell-based
Outline: (§3)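 Growth inhibition was judged from optical density at 485 nm per well after 24-48 hrs at 35° C. Test compound came from a 5 mg/mL DMSO stock, serially doubled in water before testing in RPMI 1640.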

[8] = system: C. tropicalis; assay: Minimum inhibitory concentration, RPMI medium; assay type: cell-based
Outline: as §3

[9] = system: C. albicans; assay: Minimum inhibitory concentration, RPMI medium; assay type: cell-based
Outline: as §3

| SMILES | MIC grade, A. FUMIGATUS 210, YAG media [1] | MIC grade, A. TERREUS, YAG media [2] | MIC grade, A. NIGER, YAG media [3] | MIC grade, A. FLAVUS, YAG media [4] | MIC grade, A. TERREUS 49, YAG media [5] | MIC grade, A. FUMIGATUS, YAG media [6] | MIC grade, C. PARAPSILOSIS, RPMI media [7] | MIC grade, C. TROPICALIS, RPMI media [8] | MIC grade, C. ALBICANS, RPMI media [9] |
| --- | --- | --- | --- | --- | --- | --- | --- | --- | --- |
| COCC1=NN=C(N)SC1 | 2 (2: 1-5 mg/L) | 2 (2: 1-5 mg/L) | 2 (2: 1-5 mg/L) | 2 (2: 1-5 mg/L) | 2 (2: 1-5 mg/L) | 2 (2: 1-5 mg/L) | 2 (2: 5-20 mg/L) | 2 (2: 5-20 mg/L) | 2 (2: 5-20 mg/L) |
| NC1=NN=C(c2ccc(Cl)c(Cl)c2)CS1 | 1 (1: ≥5 mg/L) | 1 (1: ≥5 mg/L) | 2 (2: 1-5 mg/L) | 1 (1: ≥5 mg/L) | 1 (1: ≥5 mg/L) | 1 (1: ≥5 mg/L) | 1 (1: ≥20 mg/L) | 1 (1: ≥20 mg/L) | 1 (1: ≥20 mg/L) |
| COCCC1=NN=C(N)SC1 | 2 (2: 1-5 mg/L) | 3 (3: 0.2-1 mg/L) | 3 (3: 0.2-1 mg/L) | 3 (3: 0.2-1 mg/L) | 3 (3: 0.2-1 mg/L) | 3 (3: 0.2-1 mg/L) | 2 (2: 5-20 mg/L) | 1 (1: ≥20 mg/L) | 1 (1: ≥20 mg/L) |
| NC1=NN=C(CCCCCc2ccccn2)CS1 | 4 (4: <0.2 mg/L) | 3 (3: 0.2-1 mg/L) | 4 (4: <0.2 mg/L) | 3 (3: 0.2-1 mg/L) | 4 (4: <0.2 mg/L) | 3 (3: 0.2-1 mg/L) | 3 (3: 1-5 mg/L) | 2 (2: 5-20 mg/L) | 2 (2: 5-20 mg/L) |
| CCOC(=O)c1ccc(C2=CSC(N)=NN2)cc1 | 4 (4: <0.2 mg/L) | 4 (4: <0.2 mg/L) | 4 (4: <0.2 mg/L) | 4 (4: <0.2 mg/L) | 3 (3: 0.2-1 mg/L) | 4 (4: <0.2 mg/L) | 4 (4: <1 mg/L) | 2 (2: 5-20 mg/L) | 3 (3: 1-5 mg/L) |
| CCCCOC(=O)CC1=NN=C(N)SC1 | 3 (3: 0.2-1 mg/L) | 2 (2: 1-5 mg/L) | 3 (3: 0.2-1 mg/L) | 2 (2: 1-5 mg/L) | 3 (3: 0.2-1 mg/L) | 2 (2: 1-5 mg/L) | 3 (3: 1-5 mg/L) | 1 (1: ≥20 mg/L) | 1 (1: ≥20 mg/L) |
